Structures are written as SMILES. Where only a bound is given, the exact number is not on record here.

Consider `CCn1cncc1/C=C/c1cn(-c2ccccc2)nc1OCc1ccc(OCc2nc(-c3ccco3)oc2C)c(OC)c1`, for which the melting point lay in the range of 130 to 132 °C.

On to `CCN(CC)C1CCN(c2cccc(-c3cnn4c(N)c(-c5ccc(F)cc5)c(C)nc34)c2)CC1`, for which the melting point lay within 208 to 210 °C.

Turning to `COc1cccc(C(=O)Nc2ccc(Cn3cnc(O)c3C(N)=O)cc2)c1`, the melting point fell in the range of 257 to 259 °C.

Take `CCCC1(CC(=O)O)OCC(=O)c2c1[nH]c1ccccc21` (stereo not given): the melting point lay in the range of 206 to 208 °C.

On to `CS(=O)(=O)c1ccc(-c2coc(=O)n2-c2ccc(F)cc2)cc1`, for which the melting point was in the range of 152 to 153 °C.

Compound `COc1cccc(-c2nc(-c3ccoc3)n[nH]2)c1` came in with a melting point of 169 to 171 °C.

In turn, `CC1(C)CNC(=O)c2cc3nc(-c4ccncc4)[nH]c3cc21` gave a melting point of 231 to 234 °C.

Compound `CCc1c(Cc2[nH]c(Cc3[nH]c(C=O)c(C)c3CC)c(CC)c2CC)[nH]c(C=O)c1C` had a melting point of 202 to 203 °C.

For the compound `CCc1noc(CN2C(=O)c3ccccc3C2=O)n1`, the melting point is 106 to 107 °C.

`O=C(Nc1ccc(S(=O)(=O)Nc2ncccn2)cc1)c1ccccc1SSc1ccccc1C(=O)Nc1ccc(S(=O)(=O)Nc2ncccn2)cc1` registered a melting point of 280 °C.

In the case of `COC(=O)CC(=O)Nc1cccc(COc2ccc(C(C)=O)c(OC)c2)c1`, the melting point fell in the range of 93.5 to 96.5 °C.

`CCn1cc(C(=O)O)c(=O)c2cc3cc(F)c(N4CCNC(c5cccc(F)c5)C4)cc3nc21` (racemic) had a melting point of 284 °C.

Consider `O=C1C2=C(CCCC2)C(=O)N1c1ccc(Br)cc1F`, for which the melting point is 102 °C.

For `O=C(NOC1CCCCO1)c1cnc(N2CCN(S(=O)(=O)c3ccc4ccccc4c3)CC2)nc1` (stereo not given), the melting point worked out at 198 °C.

`CCN(CC)CCNC(=O)c1c(I)ccc2c1Nc1ccccc1C2` had a melting point of 106 to 108 °C.

`CS(=O)(=O)N1CCC(Nc2nc(Cl)nc(Nc3cccc(C(F)(F)F)c3)n2)CC1` showed a melting point of 220 to 222 °C.

`Oc1cc(O)c2c(-c3cc(F)cc(F)c3)coc2c1`: the melting point was 149 to 151 °C.

`Cc1ccc(-c2cccc(/C=C/C(=O)Nc3ccc(Cn4ccnc4)cc3)c2)cc1` gave a melting point of 198 to 200 °C.

Turning to `C[C@H](NC(=O)CC1CCC(=O)CC1)c1ccccc1`, the melting point was 110 to 151 °C.

Take `CCCCCC(CC(=O)Nc1cc(C(N)=O)ccc1C(C)(C)C)c1cc(C)c(OC)cc1OC` (stereo not given): the melting point was in the range of 179 to 180 °C.

Turning to `O=[N+]([O-])c1cc2nc(O)c(O)nc2cc1Br`, the melting point is > 300 °C.

The compound `CC(C)(C)OC(=O)NCCNC(=O)c1nc(Cl)sc1Br` displayed a melting point of 142 to 144 °C.

With `COc1ccc(S(=O)(=O)n2ccc3cccc(-c4ccc(C#N)cc4)c32)cc1`, the melting point lay in the range of 164 to 166 °C.

In the case of `Cc1cc(Oc2c(Cl)cc(C(F)(F)F)cc2Cl)nn1C(=O)NCC1CCCO1` (stereo not given), the melting point was 74 to 76 °C.

In turn, `CS(=O)(=O)Nc1ccc(OC(=O)c2ccc(CCBr)cc2)cc1` returned a melting point of 161 to 162 °C.

Consider `Cc1cccc(C)c1O[C@@H]1CCNC[C@H]1O` (relative stereo), for which the melting point fell in the range of 131 to 133 °C.

As for `COc1ccc2c(c1)c1c(n2Cc2ccccc2)CCCC1=O`, the melting point was in the range of 174 to 175 °C.

`COC(=O)c1scc(-c2ccccc2)c1-c1ccc(SCOC(C)=O)c(F)c1`: the melting point fell in the range of 103 to 104 °C.

Turning to `COc1nnc(SCC2=C(C(=O)O)N3C(=O)C(NC(=O)Cc4csc(=O)s4)C3SC2)s1` (stereo not given), the melting point came out at 208 °C.

Consider `N=C(N)c1cccc(Oc2cc(C(N)=O)cc(Oc3cccc(C(=N)N)c3)n2)c1`, for which the melting point is > 210 °C.

In turn, `COC(=O)C1=C(C)NC(c2sc(C)nc2C)=NC1c1ccc(F)cc1Cl` (stereo not given) came in with a melting point of 116 to 118 °C.

With `O=C(CCc1ccccc1)N[C@H](Cc1ccc(C(F)(F)F)cc1)[C@@H](O)c1ccc(F)cc1` (racemic), the melting point lay in the range of 144 to 145 °C.

With `CCn1cc(C(=O)O)c(=O)c2cc(F)c(C)c(F)c21`, the melting point was in the range of 245 to 248 °C.

The compound `COc1cc(COc2nn(-c3ccccc3)cc2/C=C2\SC(=O)N(C)C2=O)ccc1OCc1nc(-c2ccco2)oc1C` showed a melting point of 215 to 216 °C.

`Cn1c(C(=O)Nc2cc3c(cn2)[nH]c2ccccc23)cc2ccccc21` displayed a melting point of 300 to 301 °C.

`O=S(CCCCCCOc1ccc(C2=C(c3ccccc3)CCCc3cc(O)ccc32)cc1)CCCC(F)(F)C(F)(F)F` (stereo not given) returned a melting point of 121 °C.

`CCONC(=O)c1ccc(-c2cccc(CN(C)Cc3ccccc3)c2)cn1` returned a melting point of 85 to 90 °C.

In turn, `CCOC(=O)NC[C@H]1CN(c2ccc(N3CCC(n4ncnn4)CC3)c(F)c2)C(=O)O1` had a melting point of 176 to 178 °C.

Take `CC(C)(C)OC(=O)NCc1cccc(C2CCNCC2)c1`: the melting point is 79 to 84 °C.

Compound `Cc1ccc(C(=O)CBr)cc1S(N)(=O)=O` gave a melting point of 146 to 148 °C.

`Cc1oc2ccccc2c1C(=O)N(Cc1ccccc1)Cc1ccc2cc(O)ccc2c1` registered a melting point of 190 to 193 °C.

The compound `CCCn1cc(Cc2ccc(C(=O)O)cc2OC)c2cc(C=CCCC(=O)N(C)C)ccc21` showed a melting point of 151 to 153 °C.

Take `O=Cc1[nH]cc2c1OCCO2`: the melting point is 147 °C.

The compound `O=C1NC(=O)C(c2ccc(-c3ccccc3)s2)O1` (stereo not given) had a melting point of 233 to 235 °C.

With `CCCCCCCCCC(O)CNCCNCC(O)CCCCCCCCC` (stereo not given), the melting point lay within 130 to 138 °C.

`O=c1ccc(-c2ccc(C(F)(F)F)cc2)n[nH]1` gave a melting point of 191 to 193 °C.

`Cc1cc(=O)c(Oc2ccccc2C)c(-c2ccc(S(C)(=O)=O)cc2)o1` had a melting point of 168 °C.

`O=S1(=O)c2cccc3cccc(c23)N1CCCN1CCN(c2ccc(F)cc2)CC1` came in with a melting point of 95 to 97 °C.

`CC(O)CCNC(=O)C1CCC(Nc2nccc(-n3ncc4ccccc43)n2)CC1` (stereo not given): the melting point fell in the range of 203 to 204 °C.

On to `CC(=O)c1ccc(Br)c(S(N)(=O)=O)c1`, for which the melting point turned out to be 161 °C.

Consider `Cc1ccc(CNc2cccc3c2C(=O)N(C2CCC(=O)NC2=O)C3=O)o1` (stereo not given), for which the melting point lay in the range of 305 to 307 °C.

Regarding `O=[N+]([O-])c1ccc(C=Nc2c3c(nc4ccccc24)CCCC3)cc1`, the melting point fell in the range of 237 to 238 °C.

On to `O=C1OC(c2ccccc2)CC(O)=C1SCc1ccccc1` (stereo not given), for which the melting point lay within 150 to 152 °C.

As to `NC1CC(c2c[nH]c3ccc(CC4COC(=O)N4)cc23)C1` (stereo not given), the melting point lay in the range of 95 to 100 °C.

For `CCN(CC)C(=O)c1c(C)cccc1Cl`, the melting point fell in the range of 48 to 49 °C.

With `Cn1cc(-c2cccc(Cl)c2)c(=O)c(-c2cccc(C(F)(F)F)c2)c1`, the melting point was in the range of 133 to 135 °C.

With `Cc1ncccc1-c1cncc(OC2SCC(O)C(O)C2O)c1` (stereo not given), the melting point is 204 to 207 °C.

Regarding `Cc1c(C(Cl)=Cc2ccc(C(F)(F)F)cc2)ccc2nc(N)nc(N)c12`, the melting point is > 300 °C.

Turning to `CNc1nc(C)c(-c2nc3ccccc3c(=O)n2-c2cccc(C)c2)s1`, the melting point was > 275 °C.

`Cc1cccc(-c2nc(Nc3ccc(Cl)cc3)c3ccccc3n2)n1` displayed a melting point of 256 to 259 °C.

In turn, `COc1cccc(CC(c2ccccc2)N(CCO)CCO)c1` (stereo not given) gave a melting point of 67 to 69 °C.

`CCCCc1ccc(-c2ncc(C#N)c(Cl)n2)cc1` came in with a melting point of 107 °C.

For the compound `CC(C)C(C)(C(=O)O)N1C(=O)c2ccccc2C1=O` (stereo not given), the melting point fell in the range of 151 to 152 °C.

On to `CCCC1=C([N+](=O)[O-])C(c2ccccc2Cl)c2c[nH]nc2N1` (stereo not given), for which the melting point was determined as 228 °C.

For `OCCCn1c(=S)[nH]c2c(OCc3ccccc3)cccc21`, the melting point was 124 to 125 °C.

`CCCCCCCCCCCCCCCCCCOc1cccc(N(CC(=O)OCc2ccccc2)CC(=O)OCc2ccccc2)c1` had a melting point of 55 to 57 °C.

In turn, `COC(=O)c1ccc(CCNC(=O)C[C@H]2O[C@H](c3cccc(OC)c3OC)c3cc(Cl)ccc3N(CC(C)(C)CO)C2=O)cc1` yielded a melting point of 167 to 169 °C.

Compound `N#Cc1c(N2CCN(C(=O)c3ccco3)CC2)c2cc(Cl)cnc2[nH]c1=O` showed a melting point of 303 °C.

With `COc1ccnc(CCc2nc3cc(-c4ccc(OC)c(OC)c4)cnc3[nH]2)c1`, the melting point was in the range of 185 to 186 °C.

Compound `CCCOc1ccc(S(=O)(=O)N2CCOCC2)cc1-c1nc2c([nH]1)c1nncn1c(=O)n2CCC` registered a melting point of 169 °C.

In the case of `O=C(ON1CCC(c2nsc3ccccc23)CC1)c1ccccc1`, the melting point fell in the range of 84 to 85 °C.

Regarding `O=C(C[C@H](C(=O)N[C@H](COC(=O)OCc1ccccc1)c1ccccc1)n1ccc(-c2ccc(-c3ccncc3)cc2)c1)OCc1ccccc1`, the melting point lay within 138 to 140 °C.

`O=C1C=C(NC(=O)C(=O)c2cn(Cc3ccc(Cl)cc3)c3ccc(Cl)cc23)CO1` gave a melting point of 251 to 253 °C.

Consider `CC(C)C1SCC(=O)CC1=O` (stereo not given), for which the melting point stood at 71 °C.

With `O=Cc1ccc(-c2cccc(-c3cn([C@H]4CN5CCC4CC5)nn3)c2)s1`, the melting point is 150 °C.

For the compound `COc1ccc(F)cc1C(=O)NC1COc2cc(OC)c(S(N)(=O)=O)cc2C1` (stereo not given), the melting point lay within 209 to 210 °C.

`CNc1nccc(Oc2ccc(NC(=O)Nc3ccc(CN4CCN(C(C)(C)C)CC4)c(C(F)(F)F)c3)cc2)n1` had a melting point of 257 to 258 °C.

For the compound `CC1(C)OC(C=Cc2cc(Cl)cc(Cl)c2)=CC1=O`, the melting point fell in the range of 129 to 131 °C.

For the compound `CCc1nc2c(N)nc3ccccc3c2n1CC1(O)CCS(=O)(=O)CC1`, the melting point is > 250 °C.

In the case of `COc1ccc([C@@H]2c3ccccc3C[C@@H]3CC(=O)N(C)CCN32)cc1` (racemic), the melting point fell in the range of 170 to 172 °C.

The compound `CNC(=O)C1=CC(CF)(CF)Oc2ccc([N+](=O)[O-])cc21` gave a melting point of 178 to 179 °C.

On to `CC(c1oc2ccccc2c(=O)c1-c1cccc(F)c1)n1ccc2ncnc(Cl)c21` (stereo not given), for which the melting point was in the range of 166 to 168 °C.

With `O=C(N[C@H](Cc1cccc(OC(F)(F)C(F)F)c1)[C@@H](O)c1csc(-c2ccccc2)n1)c1cccc2c1C=CCCC2` (racemic), the melting point lay in the range of 137 to 138 °C.

Consider `COC1(c2cccc(Sc3ccc4c(c3)C(C)(C)S(=O)(=O)C4(C)C)c2)CCOCC1`, for which the melting point is 133 to 135 °C.

The compound `COc1cnc2c(C)ccc(-c3cccc(C(F)(F)F)c3)c2n1` gave a melting point of 119 to 121 °C.

(Values after a melting point compilation (Tetko et al.; mined from patent text by program, amines drawn as free bases though some values may be those of a salt).)
